Reference: US20120302609A1, “Pyrazolines for the Modulation of PKM2” (Dynamix Pharmaceuticals LTD., priority 2011, published 2012)
Several values for one entry are separate records, joined by “and”; a condition that tells them apart may be missing. Equal values may be shown once.

Legend:
HT-29 xenograft = HT-29 xenograft mouse model, tumor efficacy; format: in vivo; details: i.p.
Description: This example illustrates the efficacy and safety of a compound according to embodiments of the present invention, i.e., Compound 1A, using a HT-29 xenograft mouse model (a colorectal cancer model).
The HT-29 cells were maintained in vitro as a monolayer culture in McCoy's 5A medium supplemented with 10% heat inactivated fetal bovine serum, 100 U/ml penicillin and 100 μg/ml streptomycin at 37° C. in an atmosphere of 5% CO2 in air. The tumor cells were routinely subcultured twice weekly by trypsin-EDTA treatment. The cells growing in an exponential growth phase were harvested and counted for tumor inoculation.
65 mice were inoculated subcutaneously at the right flank with 3.0×10^6 HT-29 tumor cells in 0.1 ml of serum-free medium for tumor development. The treatments were started when the tumor size reached approximately 75 (50-100) mm^3. The test article administration and the animal numbers in each group are shown in the following experiment design Table 5.
The major endpoint was to see if the tumor growth can be delayed or mice can be cured. Tumor size was measured three times weekly in two dimensions using a caliper, and the volume was expressed in mm^3 using the formula: V=0.5 a×b^2 where a and b are the long and short diameters of the tumor, respectively. The tumor size was then used for calculations of both T-C and TGI values. T-C was calculated with T as the median time (in days) required for the treatment group tumors to reach a predetermined size (e.g., 1,000 mm^3), and C as the median time (in days) for the control group tumors to reach the same size. The TGI (in percent)=(T−C)/C*100% represents the tumor growth inhibition rate, T and C were the mean volume of the treated and control groups, respectively, on a given day. Tumor weight was measured at the study termination. The T/C value (in percent) was calculated where T and C are the mean tumor weights of the treated and control groups, respectively.

[1] = tested on: H1299 Human Non-Small Cell Lung Carcinoma; assay: H1299 human non-small cell lung carcinoma nude mouse xenograft model, tumor growth delay; format: in vivo, mice
Description: The animals were fed ad libitum water (reverse osmosis, 1 ppm Cl) and NIH 31 Modified and Irradiated Lab Diet® consisting of 18.0% crude protein, 5.0% crude fat, and 5.0% crude fiber. The mice were housed on irradiated Enrich-o′ Cobs™ Laboratory Animal Bedding in static microisolators on a 12-hour light cycle at 20-22° C. (68-72° F.) and 40-60% humidity.
H1299 (NCI-H1299) NSCLC cells were obtained from the American Type Culture Collection, which reports the cell line to have originated from a lymph node metastasis and to lack p53 expression. The cell line was maintained as exponentially growing cultures in RPMI-1640 medium supplemented with 10% fetal bovine serum, 2 mM glutamine, 100 units/mL penicillin G sodium, 100 μg/mL streptomycin sulfate, 25 μg/mL gentamicin, 10 mM HEPES, and 0.075% sodium bicarbonate. The tumor cells were cultured in tissue culture flasks in a humidified incubator at 37° C., in an atmosphere of 5% CO2 and 95% air.
H1299 tumor cells were harvested during log phase growth and suspended in cold PBS. Each nude mouse was inoculated subcutaneously in the right flank with 0.2 mL of the cell suspension (1×10^7 cells). The tumors were periodically calipered in two dimensions to monitor size as the mean volume approached the desired 90-130 mm^3 range. Tumor size was calculated by the following formula:
where w=width and l=length, in mm, of the tumor. Tumor weight may be estimated with the assumption that 1 mg is equivalent to 1 mm^3 of tumor volume.
Compound 13A (MW 467.51, code-named XT26) was provided as a powder stored at −20° C., and protected from light during storage and handling. Dosing suspensions, in 0.5% carboxymethyl cellulose and 1% Tween® 80 in deionized water (Vehicle), were prepared fresh for each dose, and kept at 4° C. post formulation. Gemcitabine (Gemzar®, Lilly, 38 mg/mL, Lot # A866884A) was stored at room temperature. A fresh 12 mg/mL gemcitabine dosing solution was prepared on each treatment day by diluting an aliquot of the stock solution with saline.
Dosing began on D1 in four groups of mice (n=12/group in Groups 1, 3, and 4; n=6 in Group 2). XT26 and its vehicle were administered intraperitoneally (i.p.) twice daily for 28 days (b.i.d.×28), starting with the p.m. dose on D1 and ending with the a.m. dose on D29. Gemcitabine was administered i.p. once daily at three-day intervals for four doses (q3d×4). In all groups, the dosing volume of 10 ml/kg (0.2 ml/20 g mouse) was scaled to the weight of each individual animal, as measured twice weekly.
Group 1 mice received the XT26 vehicle b.i.d.×28, and served as the controls for the study. Group 2 received gemcitabine at 120 mg/kg. Group 3 was to receive XT26 at 100 mg/kg b.i.d.×28; on D21, four mice (Animals 1, 3, 4, and 5) erroneously received 200 mg/kg XT26 for their a.m. dose. […] Group 4 dosing at 200 mg/kg resumed on D17 on a qd (once daily)×13 dosing schedule. Because of a scheduling error, the D19 dose for Group 4 mice was omitted; qd dosing occurred on Days 17, 18, and 20-28.
Tumors were calipered twice weekly for the duration of the study, and each animal was euthanized when its neoplasm reached the predetermined endpoint volume (1200 mm^3) or at the end of the study, whichever came first. Animals that exited the study for tumor growth were documented as euthanized for tumor progression (TP), with the date of euthanasia. The time to endpoint (TTE) for each mouse was calculated by the following equation: […]
where TTE is expressed in days, endpoint volume is expressed in mm^3, b is the intercept, and m is the slope of the line obtained by linear regression of a log-transformed tumor growth data set.

[2] = Group 1 vs 3: XT26 ip bid × 28, 100 mg/kg
[3] = XT26 200 mg/kg ip bid × 8, then qd
[4] = XT26 200 mg/kg ip bid × 8, then qd on Days 17, 18, 20-28

## CCS(=O)(=O)Nc1ccc(C2=NN(C(C)=O)C(c3ccc(OC)cc3)C2)cc1 (racemic) [Compound 1A, N-(4-(1-acetyl-5-(4-methoxyphenyl)-4,5-dihydro-1H-pyrazol-3-yl)phenyl)ethanesulfonamide]
HT-29 xenograft; 100 mg/kg Q2D
  anti-tumor activity: statistically significantly anti-tumor activity
HT-29 xenograft; 200 mg/kg QD
  anti-tumor activity: statistically significantly anti-tumor activity
  TGI reached by day ten: > 50%
HT-29 xenograft; 400 mg/kg QD, HT-29 xenograft, BALB/c nude mice
  Tumor Growth Inhibition (TGI): 42%
HT-29 xenograft; 400 mg/kg QD
  TGI reached by day ten: > 50%

## COc1ccc([C@@H]2CC(c3ccc(NS(=O)(=O)c4ccc(F)cc4)cc3)=NN2C(C)=O)cc1 [Compound 13A, (S)—N-(4-(1-acetyl-5-(4-methoxyphenyl)-4,5-dihydro-1H-pyrazol-3-yl)phenyl)-4-fluorobenzenesulfonamide]
[1]; [2]
  Are the survival curves sig different?: Yes
  Hazard Ratio: 2.315
[1]; Group 1 vs 3: vehicle / XT26 100 mg/kg
  Median survival Ratio: 0.8022
[1]; XT26 100 mg/kg ip bid × 28
  % TGD: 24%
  Regressions CR: 0
  Regressions PR: 0
  Regressions TFS: 0
[1]; XT26 100 mg/kg ip bid × 28, endpoint 1200 mm^3, 28-day study
  Median TTE: 23.2 days
[1]; XT26 100 mg/kg ip bid × 28, median tumor volume of animals not at endpoint (n in brackets), 100 mg/kg
  MTV (n) Day 28: 1080 mm^3 and 1080 (3) mm^3
[1]; XT26 100 mg/kg ip bid × 28, vs Group 1 vehicle
  T − C: 4.5 days
[1]; [3]
  Regressions CR: 0
  Regressions PR: 0
  Regressions TFS: 0
[1]; [4]
  % TGD: 13%
  T − C: 2.5 days
[1]; XT26 200 mg/kg ip bid × 8, then qd on Days 17, 18, 20-28, n = 9
  Median TTE: 21.2 days
[1]; XT26 200 mg/kg ip bid × 8, then qd, animals not at endpoint (n in brackets), 200 mg/kg
  MTV (n) Day 28: 527 mm^3 and 527 (1) mm^3
[1]; XT26 ip bid × 28, 100 mg/kg (Column B = treated group)
  Median survival: 23.25
[1]; discontinuous 200 mg/kg XT26 therapy, five mice remaining after D10
  survival advantage relative to the vehicle treatment: little or no survival advantages
